The record followed here is patent publication US4714705A, “4-nitrogen substituted isoquinolinol compounds having cardiotonic, phosphodiesterase fraction III inhibiting properties and/or renal vasodilating properties” (Ortho Pharmaceutical Corporation, priority 1986, dated 1987).

This experiment concerns adult mongrel dogs. The experiment can be described thus: Renal vasodilating activity in anesthetized dogs. The settings on record: Canis lupus familiaris; for change in vivo at 0.2 mg/kg: 0.2 mg/kg intravenous. It counts as in vivo, dog (adult mongrel). As for the experimental part: Goldberg et al, J. Pharmacol. Exp. Ther., 163, 188 (1968), performed an investigation of the structural requirements for dopamine-like renal vasodilation of phenethylamines and apmorphine. The following procedure is a variation of the assay described in that report.
Adult mongrel dogs were anesthetized and surgically prepared for electromagnetic measurement of renal artery blood flow. A carotid artery was cannulated for measuring arterial blood pressure, and drugs were administered intravenously or intraarterially (via the renal artery). Heart rate was monitored with a cardiotachometer. Renal vascular resistance was calculated as the ratio of mean arterial blood pressure/renal artery blood flow. Dopamine was infused intravenously at […] for ten minutes (at an infusion rate of about 1 ml/min) to determine responsiveness of each dog to renal dopamine receptor stimulation. Cumulative dose-response data were obtained by infusing a compound of this invention at progressively increasing (usually three-fold) infusion rates, esch dose being infused for five minutes. The maximum percent increase from pre-drug control in renal artery blood flow (or a decrease in renal vascular resistance) was determined for each infusion dose.
RBF values are percent increase in renal blood flow. RVR values are percent increase in renal vascular resistance. MABP and HR are increases in mean arterial blood pressure and heart rate, respectively, relative to controls.

Setting [1] is: iv, read-out: HR, percent change in heart rate.
The mark [2] stands for this setting: 6.2 mg/kg intravenous, relative to controls, read-out: MABP, mean arterial blood pressure.
[3] abbreviates: 6.2 mg/kg intravenous, relative to controls, read-out: RBF, renal blood flow.
[4] abbreviates: 6.2 mg/kg intravenous, relative to controls, read-out: RVR, renal vascular resistance.
The mark [5] stands for this setting: 6.2 mg/kg intravenous, relative to controls, read-out: HR, percent change in heart rate.
[6] abbreviates: 1.2 mg/kg intravenous, relative to controls, read-out: HR, percent change in heart rate.
[7] abbreviates: 1.2 mg/kg intravenous, relative to controls, read-out: MABP, mean arterial blood pressure.
Setting [8] is: 1.2 mg/kg intravenous, relative to controls, read-out: RBF, renal blood flow.
The mark [9] stands for this setting: 1.2 mg/kg intravenous, relative to controls, read-out: RVR, renal vascular resistance.

Read-outs that look alike come from different tables or passages of the source.

For `COc1cc2c(C)nc(O)c(NC(=O)Nc3ccc(C(F)(F)F)cc3)c2cc1OC` [BAD], the change in vivo at 6.2 mg/kg runs as follows: under setting [1], 10%; under setting [2], 4%; under setting [3], 49%; under setting [4], -29%.
Turning to `COc1cccc(NC(=O)Nc2c(O)nc(C)c3cc(OC)c(OC)cc23)c1` [BAE], the change in vivo at 6.2 mg/kg under setting [5] is -2%, the change in vivo at 6.2 mg/kg under setting [3] turned out to be 58% and the change in vivo at 6.2 mg/kg under setting [4] was -36%.
The like results for `COc1cc2c(C)nc(O)c(NC(=O)Nc3cccc(Cl)c3)c2cc1OC` [BAF] were, in that order, 4%, 30% and -20%.
Take `COc1cc2c(C)nc(O)c(NC(=O)Nc3cccc(C(F)(F)F)c3)c2cc1OC` [BAG]: the change in vivo at 6.2 mg/kg was -10% under setting [5], 2% under setting [2], 23% under setting [3] and -16% under setting [4].
The like results for `CCOc1cc2c(C)nc(O)c(NC(=O)NCc3ccccc3)c2cc1OC` [BAJ] were, in that order, -6%, -11%, 54% and -32%.
As to `C=CCNC(=O)Nc1c(O)nc(C)c2cc(OC)c(OC)cc12` [BAO, 4-(N'-allylureido)-3-hydroxy-6,7-dimethoxy-1-methylisoquinoline], the change in vivo at 1.2 mg/kg was -3% under setting [6], 8% under setting [7], 96% under setting [8] and -44% under setting [9].
For `COc1ccc(NC(=O)Nc2c(O)nc(C)c3cc(OC)c(OC)cc23)c(OC)c1` [BAP], the change in vivo at 1.2 mg/kg was -1% under setting [6], -14% under setting [7], 17% under setting [8] and -26% under setting [9].
As to `COc1cc2c(C)nc(O)c(NC(=O)Nc3ccc([N+](=O)[O-])cc3)c2cc1OC` [BAR], the change in vivo at 1.2 mg/kg is, setting by setting: under setting [8], 9%; under setting [9], -8%.
Take `COc1cc2c(C)nc(O)c(NC(=O)NC(C)(C)C)c2cc1OC` [BAU]: the change in vivo at 6.2 mg/kg by setting is: under setting [5], 4%; under setting [2], -3%; under setting [3], 12%; under setting [4], -13%.
As to `CCOc1cc2c(NC(=O)Nc3ccc(OC)cc3)c(O)nc(C)c2cc1OC` [BAV], the change in vivo at 6.2 mg/kg is, setting by setting: under setting [5], 9%; under setting [2], -5%; under setting [3], 35%; under setting [4], -29%.
Consider `COc1cc2c(C)nc(O)c(NC(=O)NCCCl)c2cc1OC` [BAY], for which the change in vivo at 6.2 mg/kg was 27% under setting [1]; 19% (iv, read-out: MABP, mean arterial blood pressure); 85% (iv, read-out: RBF, renal blood flow); -35% (iv, read-out: RVR, renal vascular resistance).
For the molecule `CCOc1cc2c(NC(=O)Nc3ccc(SC)cc3)c(O)nc(C)c2cc1OC` [BBA], the change in vivo at 6.2 mg/kg is 2% under setting [5], 23% under setting [2], 53% under setting [3] and -17% under setting [4].
As to `COc1cc2c(C)nc(O)c(NC(=O)NC3CCCCC3)c2cc1OC` [BBE], the change in vivo at 1.2 mg/kg is 2% under setting [6], 3% under setting [7], 24% under setting [8] and -16% under setting [9].
On to `CCCCCCCCNC(=O)Nc1c(O)nc(C)c2cc(OC)c(OC)cc12` [BBF], for which the change in vivo at 1.2 mg/kg is, setting by setting: under setting [6], -14%; under setting [8], 19%; under setting [9], -24%.
With `COc1ccc(NC(=O)Nc2c(O)ncc3cc(OC)c(OC)cc23)cc1` [BBG], the change in vivo at 1.2 mg/kg is 12% under setting [1], 1% under setting [7], 15% under setting [8] and -11% under setting [9].
For `COc1ccc(NC(=O)Nc2c(O)nc(C)c3cc(OC)c(OC)cc23)cc1OC` [BBL], the change in vivo at 1.2 mg/kg by setting is: under setting [6], -1%; under setting [7], 5%; under setting [8], 13%; under setting [9], -8%.
Consider `COc1cc2c(C)nc(O)c(NC(=O)NCCc3ccccc3)c2cc1OC` [BBM], for which the change in vivo at 0.2 mg/kg is -1% (relative to controls, read-out: HR, percent change in heart rate); 12% (relative to controls, read-out: RBF, renal blood flow); -10% (relative to controls, read-out: RVR, renal vascular resistance).
As for `COC(=O)Nc1c(O)nc(C)c2cc(OC)c(OC)cc12` [BBR], the change in vivo at 6.2 mg/kg by setting is: under setting [5], 27%; under setting [2], -7%; under setting [3], 30%; under setting [4], -29%.
`COc1ccc(NC(=O)Nc2c(O)nc(C)c3cc(OC)ccc23)cc1` [BBS]: the change in vivo at 1.2 mg/kg by setting is: under setting [6], 5%; under setting [7], 2%; under setting [8], 17%; under setting [9], -4%.
In the same order, the values of `COc1cc2c(C)nc(O)c(NC(=O)Nc3ccc(C#N)cc3)c2cc1OC` [BBX] are -11%, -11%, 12% and -20%.
The like results for `CNC(=O)Nc1c(O)nc(C)c2cc(OC)c(OC)cc12` [BBY] were, in that order, -4%, 6%, 21% and -12%.
On to `COc1cc2c(C)nc(O)c(NC(=O)Nc3ccc(N)cc3)c2cc1OC` [BBZ], for which the change in vivo at 1.2 mg/kg reads like this: under setting [6], 8%; under setting [7], 5%; under setting [8], 22%; under setting [9], -12%.
Take `CCNC(=O)Nc1c(O)nc(C)c2cc(OC)c(OC)cc12` [BCD]: the change in vivo at 1.2 mg/kg under setting [8] came to 28% and the change in vivo at 1.2 mg/kg under setting [9] was -22%.
With `COc1ccc(NC(=O)Nc2c(O)nc(C)c3cc(OC)c(OC)cc23)cc1` [BP, 4-(N'-para-methoxyphenylureido)-3-hydroxy-6,7-dimethoxy-1-methylisoquinoline], the change in vivo at 6.2 mg/kg is, setting by setting: under setting [5], 2%; under setting [2], 12%; under setting [3], 68%; under setting [4], -32%.
As to `CCOc1cc2c(C)nc(O)c(NC(N)=O)c2cc1OC` [BS], the change in vivo at 6.2 mg/kg reads like this: under setting [5], 4%; under setting [3], 33%; under setting [4], -24%.
As to `CCOc1cc2c(C)nc(O)c(NC(=O)Nc3ccc(C(F)(F)F)cc3)c2cc1OC` [BV], the change in vivo at 6.2 mg/kg is 26% under setting [5], -6% under setting [2], 25% under setting [3] and -24% under setting [4].
With `CCCCOC(=O)Nc1c(O)nc(C)c2cc(OC)c(OC)cc12` [Compound BBP, 4-[N-(n-Butoxycarbonyl)amino]-3-hydroxy-6,7-dimethoxy-1-methylisoquinoline], the change in vivo at 6.2 mg/kg under setting [2] worked out at 1%, the change in vivo at 6.2 mg/kg under setting [3] came to 77% and the change in vivo at 6.2 mg/kg under setting [4] was -42%.
Regarding `COc1cc2c(C)nc(O)c(NC(=O)Nc3ccc(C(=O)O)cc3)c2cc1OC` [Compound BCA, 4-[N-(4-Carboxyphenyl)ureido]-3-hydroxy-6,7-dimethoxy-1-methylisoquinoline.5/2 Hydrate], the change in vivo at 1.2 mg/kg under setting [6] was -12%, the change in vivo at 1.2 mg/kg under setting [7] is -1%, the change in vivo at 1.2 mg/kg under setting [8] worked out at 40% and the change in vivo at 1.2 mg/kg under setting [9] is -28%.
As for `COc1cc2c(C)nc(O)c(NC(=O)Nc3ccc([S+](C)[O-])cc3)c2cc1OC` (stereo not drawn) [Compound BCB, Hydrate], the change in vivo at 1.2 mg/kg is -1% under setting [6], 5% under setting [7], 12% under setting [8] and -6% under setting [9].
For the molecule `COc1cc2c(C)nc(O)c(NC(N)=O)c2cc1OC` [Compound BM, 6,7-Dimethoxy-3-hydroxy-1-methyl-4-ureidoisoquinoline], the change in vivo at 6.2 mg/kg reads like this: under setting [5], -10%; under setting [2], 18%; under setting [3], 59%; under setting [4], -23%.
As for `CCCCNC(=O)Nc1c(O)nc(C)c2cc(OC)c(OC)cc12` [Compound BR, 4-(N'-n-Butylureido)-3-hydroxy-6,7-dimethoxy-1-methylisoquinoline Hemihydrate], the change in vivo at 6.2 mg/kg under setting [5] is -9%, the change in vivo at 6.2 mg/kg under setting [2] is -1%, the change in vivo at 6.2 mg/kg under setting [3] was 128% and the change in vivo at 6.2 mg/kg under setting [4] is -56%.
